Assay results taken from patent publication US5932217A, “Peptides which inhibit adhesion between leukocytes and endothelial cells” (priority 1994, dated 1999).

Columns and labels:
[1] = system: rabbits challenged intracisternally with pneumococcus strain R6; test: Rabbit model for meningitis, intravenous FHA or peptides; format: in vivo; conditions: for Lactate / Protein: CSF at 6 hours
Description: The rabbit model was performed according to an established protocol. Specific pathogen free, New Zealand white rabbits (2 kg; Hare Marland, Nutley, N.J.) were anesthetized with valium (2.5 mg/kg, subcutaneously, Hoffman-LaRoche, Nutley, N.J.), ketamine (35 mg/kg, intramuscularly, Aveco, Fort Dodge, Iowa) and xylazine (5 mg/kg, intramuscularly, Miles Laboratories, Shawnee, Kans.) and a helmet of dental acrylic was affixed to the calvarium. Twenty four hours later, the rabbits were anesthetized with ethyl carbamate (1.75 g/kg; Aldrich Chemical Co., Milwaukee, Wis.) and pentobarbital (15 mg/kg; Abbott Laboratories, Abbott Park, Ill.) and placed in a stereotaxic frame. A spinal needle was introduced into the cisterna magna and 300 μl of CSF was withdrawn. The animals were challenged intracisternally with 10^8 heat killed, unencapsulated pneumococcus strain R6 introduced in 200 μl of saline (time 0). One hour later, animals were treated with peptides dissolved in 1 ml of saline by intravenous injection into the right marginal ear vein. The concentration of FHA was 0.1 μM and that of the FHA Ia, Factor X II, and scrambled FHA II peptides was 10 μM. For the acetyl-FHA II, acetyl/amide-FHA II, dimer of FHA II and trimer of FHA II peptides, the concentration was 10^-3 μM. The concentration of FHA II is given in the results section. Samples of CSF were withdrawn at hourly intervals after pneumococcal inoculation and leukocyte density was measured using a cell counter (Coulter Electronics Inc., Hialeah, Fla.). CSF samples were centrifuged at 10,000×g for 5 minutes and the supernatant was stored at -70° C. until assayed for protein concentration using the bicinchoninic acid method (BCA Kit, Pierce Chemical Co., Rockford Ill.) and for lactate concentration (Lactate Detection Kit, Sigma, St. Louis, Mo.). Statistically significant differences between treatments were determined by a one way analysis of variance test.
The anti-inflammatory effects of the administered peptides were assessed in the rabbit model for meningitis by the procedures described in Example 10. The animals received 1 ml of 1 uM peptide intravenously. In a slight departure from the protocol described in Example 10, samples of blood were drawn from the left marginal ear vein 30 minutes after the administration of the peptides to determine peripheral leukocyte concentrations.

[2] = system: human umbilical vein endothelial cells; test: Transendothelial migration of neutrophils; format: cell-based; conditions: peptides 0.01 mM
Description: Transendothelial migration of neutrophils was studied based on a method described by Muller et al. (1992), J. Exp. Med. 176: 819-828. Briefly, human neutrophils suspended in ice-cold Hanks balanced salt solution (HBSS) containing Ca^++ and Mg^++ (Sigma) were fluoresceinated by adding 3.3 μl/ml 5-(and 6-)carboxyfluorescein diacetate, succinimidyl ester (CFSE, Molecular Probes Inc., Oreg.). After incubation for 30 mins. on ice, neutrophils were washed twice in cold HBSS with Ca^++ and Mg^++ and resuspended in cold Medium 199 (M199, Sigma) to a final concentration of 10^6 /ml. Human umbilical vein endothelial cells were subcultured at confluence into 96-well tissue culture plates (Becton Dickinson Labware, Lincoln Park, N.J.) that were coated with hydrated collagen gel (Vitrogen; Collagen Corporation, Palo Alto, Calif.) and fibronectin. Endothelial cells were stimulated with 10 ng/ml TNF-alpha for 4 hours and washed three times with warm M199. Neutrophils (10^6 /ml) were preincubated with 0.01 mM of peptides or with 1 μM of native FHA in M199 for 5 mins. on ice before they were added in 100 μl aliquots to the endothelial cells. For positive control, neutrophils were pre-incubated with 25 μg/ml anti-CD18 mAb IB4. For negative control, neutrophils were treated with 25 μg/ml mAb W6/32 against HLA class I antigen (Dako, Carpinteria, Calif.). The cells were incubated for 1 hour at 37° C., 5% CO2. To terminate transmigration, the supernatant fluid was aspirated and the wells were filled with warm 1 mM EGTA (Sigma) in HBSS without Ca and Mg. The plates were covered with plate sealers (Dynatech, Alexandria, Va.) and centrifuged in an inverted position at 250 g for 3 mins. at room temperature. To remove residual non-transmigrated neutrophils from the endothelial cells, monolayers were washed twice with 200 μl of warm Hanks solution without Ca and Mg. Fluorescence was quantitated using a fluorescence counter (Millipore Cytofluor™ 2300). The percentage of transmigrated neutrophils was determined by comparing the amount of fluorescence of test wells with that measured in collagen- and fibronectin-coated wells without endothelial cells. […] Percent inhibition of transendothelial migration of neutrophils was calculated by comparing the number of transmigrated cells in wells containing neutrophils treated with peptide to neutrophils treated with M199 alone and arbitrarily set at 100% transendothelial migration (TEM).
The procedures for determining the neutrophil adherence to cultured endothelial cells and the transendothelial migration of neutrophils were identical with those of Example 9. Control values were the same as those shown in Example 9.

Row | Substance | leukocytes/μl CSF ([1]; 6 hours post-pneumococcal challenge, 10 nmoles i.v.) [cells/μl] | Lactate ([1]; FHA 0.1 μM, peptides 10 μM) [mg/100 ml] | Protein ([1]; FHA 0.1 μM, peptides 10 μM) [mg/ml CSF] | % Inhibition of TEM ([2]; native FHA 1 μM, mAbs 25 μg/ml) [%] | % Inhibition of TEM ([2]; native FHA 1 μM, mAbs 25 μg/ml, listed as acetyl/amide modified FHA peptide II) [%] | Total protein in CSF ([1]; 6 hours after intracisternal inoculation of pneumococci) [mg/mL] | mean leukocyte concentration/μl CSF ([1]; 7 hours after challenge, 10^-3 μM i.v.) | mean leukocyte concentration/μl CSF ([1]; 7 hours after challenge, FHA 0.1 μM (25 μg per 2 kg), peptides 10 μM, i.v.) | mean leukocyte density/μl CSF ([1]; 7 hours after challenge, FHA 0.1 μM (25 μg/animal), peptides 1 ml of 1 uM i.v.) [cells/μl CSF] | Total protein in CSF ([1]; 7 hours after intracisternal inoculation of pneumococci) [mg/mL] | reduction of CSF leukocytosis ([1]; 7 hours, FHA 0.1 μM, peptides 10 μM) [%] | anti-inflammatory activity at reduced concentration ([1]; concentrations reduced from 10 to 0.1 μM, FIG. 21) | inflammation, numbers of leukocytes in the cerebrospinal fluid ([1]; intravenous, FIG. 5) | % Inhibition of TEM ([2]; FHA 1 μM, mAb IB4 25 μg/ml) [%] | % Inhibition of TEM ([2]; FHA 1 μM, mAb IB4 25 μg/ml, listed as Intact FHA) [%]
1 | Ac-ETKEVDG-NH2 [Acetyl/Amide-FHA II] | 3011±684 | 24.3 ± 3.2 | 1.2 ± 0.6 | 61 ± 6 | 61±6 |  |  |  |  |  |  |  |  |  | 
2 | Filamentous hemagglutinin [native FHA] |  | 25.0 ± 5.3 | 1.3 ± 0.3 | 82±1 |  | 1.70 ± 0.33 | ineffective | 2096±450 /μl CSF | 2096±450 | 1.86 ± 0.76 | > 60 | more potent anti-inflammatory activity than the corresponding Factor X peptide II | decreases inflammation | 82 ± 1 | 82±1
